{"source": "patent US20160174533A1", "about": "(priority 2009, published 2016)", "key": {"androgen receptors (AR)": {"target": "T1, androgen receptors (AR) (Homo sapiens, UniProt P10275)", "T1 construct": "expressed in transfected cells", "T1 sequence (P10275 1-920)": "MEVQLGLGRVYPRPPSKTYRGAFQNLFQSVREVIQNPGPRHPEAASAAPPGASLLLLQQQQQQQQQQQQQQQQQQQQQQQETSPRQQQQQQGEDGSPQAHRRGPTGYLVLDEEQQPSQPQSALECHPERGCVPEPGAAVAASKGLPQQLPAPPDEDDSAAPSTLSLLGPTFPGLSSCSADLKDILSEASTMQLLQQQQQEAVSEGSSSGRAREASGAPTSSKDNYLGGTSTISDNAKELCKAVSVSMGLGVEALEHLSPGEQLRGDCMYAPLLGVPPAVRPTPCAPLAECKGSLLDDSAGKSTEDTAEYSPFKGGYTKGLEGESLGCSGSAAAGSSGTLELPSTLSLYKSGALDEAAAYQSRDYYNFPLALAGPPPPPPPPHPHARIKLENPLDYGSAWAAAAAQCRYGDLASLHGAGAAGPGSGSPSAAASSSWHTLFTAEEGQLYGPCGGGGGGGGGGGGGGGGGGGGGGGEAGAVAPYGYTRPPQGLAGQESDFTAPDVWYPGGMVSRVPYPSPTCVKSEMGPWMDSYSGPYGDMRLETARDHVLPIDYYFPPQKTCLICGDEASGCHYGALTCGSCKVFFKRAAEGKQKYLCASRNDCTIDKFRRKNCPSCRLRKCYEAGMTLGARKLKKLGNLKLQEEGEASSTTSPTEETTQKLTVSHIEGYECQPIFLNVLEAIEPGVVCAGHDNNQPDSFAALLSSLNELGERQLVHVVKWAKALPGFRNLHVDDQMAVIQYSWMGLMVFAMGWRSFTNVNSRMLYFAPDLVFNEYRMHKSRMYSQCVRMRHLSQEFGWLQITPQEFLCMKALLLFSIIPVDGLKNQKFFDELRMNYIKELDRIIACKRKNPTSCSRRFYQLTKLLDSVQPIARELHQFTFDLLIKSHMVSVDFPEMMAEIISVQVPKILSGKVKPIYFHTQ", "conditions": "cited from earlier work"}, "ER-alpha": {"target": "T2, ER-alpha (Homo sapiens, UniProt P03372)", "T2 construct": "expressed in transfected cells", "T2 sequence (P03372 whole entry)": "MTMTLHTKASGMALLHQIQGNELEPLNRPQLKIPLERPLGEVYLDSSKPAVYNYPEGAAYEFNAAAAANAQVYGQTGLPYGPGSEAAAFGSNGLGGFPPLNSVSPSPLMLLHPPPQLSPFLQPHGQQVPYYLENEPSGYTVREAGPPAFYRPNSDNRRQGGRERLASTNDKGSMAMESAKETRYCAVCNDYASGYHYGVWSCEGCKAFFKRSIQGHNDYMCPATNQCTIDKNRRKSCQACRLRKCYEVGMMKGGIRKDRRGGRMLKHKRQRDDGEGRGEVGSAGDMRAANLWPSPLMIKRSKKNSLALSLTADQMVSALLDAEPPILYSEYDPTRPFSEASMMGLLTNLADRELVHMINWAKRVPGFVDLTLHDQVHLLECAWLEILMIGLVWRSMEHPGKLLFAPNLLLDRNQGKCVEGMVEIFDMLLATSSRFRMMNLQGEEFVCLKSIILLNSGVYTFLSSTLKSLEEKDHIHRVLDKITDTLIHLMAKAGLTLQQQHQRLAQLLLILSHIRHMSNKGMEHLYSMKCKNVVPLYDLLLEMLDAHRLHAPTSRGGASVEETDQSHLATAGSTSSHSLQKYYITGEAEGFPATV", "conditions": "cited from earlier work"}, "ER-beta": {"target": "T3, ER-beta (Homo sapiens, UniProt Q92731)", "T3 construct": "expressed in transfected cells", "T3 sequence (Q92731 whole entry)": "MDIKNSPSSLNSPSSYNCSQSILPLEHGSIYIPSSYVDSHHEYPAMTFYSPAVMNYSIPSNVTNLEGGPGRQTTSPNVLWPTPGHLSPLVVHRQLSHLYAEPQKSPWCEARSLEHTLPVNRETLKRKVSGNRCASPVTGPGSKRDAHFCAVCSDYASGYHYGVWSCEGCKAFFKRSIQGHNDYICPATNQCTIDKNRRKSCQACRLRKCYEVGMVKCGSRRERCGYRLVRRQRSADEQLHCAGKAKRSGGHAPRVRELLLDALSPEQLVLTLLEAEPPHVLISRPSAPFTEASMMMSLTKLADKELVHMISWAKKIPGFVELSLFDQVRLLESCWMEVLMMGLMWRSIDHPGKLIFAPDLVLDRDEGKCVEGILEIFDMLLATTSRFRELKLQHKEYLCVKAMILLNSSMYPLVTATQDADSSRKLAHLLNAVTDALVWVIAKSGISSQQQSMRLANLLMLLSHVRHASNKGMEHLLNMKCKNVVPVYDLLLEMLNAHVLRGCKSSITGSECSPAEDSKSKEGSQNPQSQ", "conditions": "cited from earlier work"}, "Cyp1a2 [1]": {"target": "T4, Cyp1a2 (Homo sapiens, UniProt P05177)", "T4 sequence (P05177 1-516)": "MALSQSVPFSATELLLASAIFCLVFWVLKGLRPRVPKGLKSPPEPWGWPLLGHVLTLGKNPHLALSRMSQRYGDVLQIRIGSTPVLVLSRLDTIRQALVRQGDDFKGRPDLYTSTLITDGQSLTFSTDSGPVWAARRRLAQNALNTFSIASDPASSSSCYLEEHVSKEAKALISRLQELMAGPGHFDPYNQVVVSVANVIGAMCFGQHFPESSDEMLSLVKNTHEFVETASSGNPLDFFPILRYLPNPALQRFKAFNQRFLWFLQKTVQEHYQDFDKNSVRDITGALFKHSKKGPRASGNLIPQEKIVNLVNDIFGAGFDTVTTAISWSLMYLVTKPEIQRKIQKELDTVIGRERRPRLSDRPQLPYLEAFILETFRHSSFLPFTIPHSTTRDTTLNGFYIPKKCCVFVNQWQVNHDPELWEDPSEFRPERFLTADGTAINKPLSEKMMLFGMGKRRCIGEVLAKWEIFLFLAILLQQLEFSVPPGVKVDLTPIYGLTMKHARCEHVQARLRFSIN", "conditions": "human populations; cited from earlier work"}, "Cyp7b1 [2]": {"test_system": "Cyp7b1", "conditions": "liver and kidney of Cyp7b-/- mice; cited from earlier work"}, "Cyp7b1 [3]": {"test_system": "Cyp7b1", "experiment": "DHEA metabolism in Cyp7b1 KO rats (transposon insertion)"}, "Cyp1a2 [4]": {"target": "T5, Cyp1a2 (Mus musculus, UniProt P00186)", "T5 sequence (P00186 2-513)": "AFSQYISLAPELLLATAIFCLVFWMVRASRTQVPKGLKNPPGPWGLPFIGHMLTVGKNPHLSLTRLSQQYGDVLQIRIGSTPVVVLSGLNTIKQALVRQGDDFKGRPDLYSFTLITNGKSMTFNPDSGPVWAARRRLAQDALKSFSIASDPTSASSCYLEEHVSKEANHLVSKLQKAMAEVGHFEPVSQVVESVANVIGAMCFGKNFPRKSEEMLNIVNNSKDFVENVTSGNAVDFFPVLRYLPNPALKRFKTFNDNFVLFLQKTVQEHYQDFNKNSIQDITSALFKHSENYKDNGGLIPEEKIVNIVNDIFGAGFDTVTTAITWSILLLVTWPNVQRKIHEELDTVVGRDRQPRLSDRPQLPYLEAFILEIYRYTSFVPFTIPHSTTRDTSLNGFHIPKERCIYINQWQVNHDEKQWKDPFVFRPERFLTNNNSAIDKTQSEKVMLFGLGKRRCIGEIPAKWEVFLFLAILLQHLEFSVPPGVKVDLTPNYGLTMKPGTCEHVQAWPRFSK", "conditions": "WT mice; cited from earlier work"}, "Cyp1a2 [5]": {"test_system": "Cyp1a2", "conditions": "Cyp1a2-/- mice; cited from earlier work"}, "Cyp2e1 [6]": {"target": "Cyp2e1 (Mus musculus, UniProt Q05421)", "sequence (Q05421 whole entry)": "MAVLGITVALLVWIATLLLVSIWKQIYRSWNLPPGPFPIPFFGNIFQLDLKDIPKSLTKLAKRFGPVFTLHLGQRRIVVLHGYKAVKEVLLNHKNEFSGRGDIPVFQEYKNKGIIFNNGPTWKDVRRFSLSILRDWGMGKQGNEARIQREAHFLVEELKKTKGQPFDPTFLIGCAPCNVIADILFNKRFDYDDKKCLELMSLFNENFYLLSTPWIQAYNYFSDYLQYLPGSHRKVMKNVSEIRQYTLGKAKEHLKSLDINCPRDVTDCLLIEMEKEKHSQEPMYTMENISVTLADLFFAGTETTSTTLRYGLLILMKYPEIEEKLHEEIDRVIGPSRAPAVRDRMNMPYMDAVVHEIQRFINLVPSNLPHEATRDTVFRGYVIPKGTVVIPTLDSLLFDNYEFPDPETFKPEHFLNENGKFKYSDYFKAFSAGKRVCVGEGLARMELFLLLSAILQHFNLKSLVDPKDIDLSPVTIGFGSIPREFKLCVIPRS", "conditions": "mouse, in vivo, 400 mg/kg; cited from earlier work"}, "Cyp2e1 [7]": {"test_system": "Cyp2e1", "conditions": "Cyp2e1-/- mice; cited from earlier work"}, "Cyp3a [8]": {"test_system": "Cyp3a", "conditions": "cited from earlier work"}, "Cyp3a [9]": {"test_system": "Cyp3a", "conditions": "cited from earlier work", "remark": "listed apart in the source"}}, "note": "Like-named read-outs stand apart in the source and are kept apart here.", "data": [{"smiles": "C[C@]12CC[C@H](O)CC1=C[C@@H](O)[C@@H]1[C@@H]2CC[C@]2(C)C(=O)CC[C@@H]12", "note": "[7-alpha-hydroxy-DHEA]", "values": [{"measurement": "receptor activation", "setting": "androgen receptors (AR)", "result": "activates"}, {"measurement": "receptor activation", "setting": "ER-alpha", "result": "activates"}, {"measurement": "receptor activation", "setting": "ER-beta", "result": "activates"}]}, {"smiles": "Cn1c(=O)c2c(ncn2C)n(C)c1=O", "note": "[Caffeine]", "values": [{"measurement": "half-life", "setting": "Cyp1a2 [1]", "result": "1.5 to 9.5", "unit": "h"}]}, {"smiles": "C[C@]12CC[C@H](O)CC1=CC[C@@H]1[C@@H]2CC[C@]2(C)C(=O)CC[C@@H]12", "note": "[DHEA, dehydroepiandrosterone]", "values": [{"measurement": "DHEA conversion to 7D", "setting": "Cyp7b1 [2]", "result": "significantly altered"}, {"measurement": "metabolism of DHEA to 7α-hydroxy-DHEA", "setting": "Cyp7b1 [3]", "result": "unable to metabolize"}]}, {"smiles": "Clc1cc2c(cc1Cl)Oc1cc(Cl)c(Cl)cc1O2", "note": "[TCDD, 2,3,7,8-Tetrachlorodibenzo-p-dioxin]", "values": [{"measurement": "liver-to-adipose (L/F) ratio", "setting": "Cyp1a2 [4]", "result": 3.6}, {"measurement": "liver-to-adipose (L/F) ratio", "setting": "Cyp1a2 [5]", "result": 0.2}]}, {"smiles": "CC(=O)Nc1ccc(O)cc1", "note": "[acetaminophen]", "values": [{"measurement": "mice that succumb to toxicity and die", "setting": "Cyp2e1 [6]", "result": "over 50%"}, {"measurement": "dose survived", "setting": "Cyp2e1 [7]", "result": "up to 400 mg/kg"}]}, {"smiles": "CC(=O)O[C@@]12CO[C@@H]1C[C@H](O)[C@@]1(C)C(=O)[C@H](O)C3=C(C)[C@@H](OC(=O)[C@H](O)[C@@H](NC(=O)OC(C)(C)C)c4ccccc4)C[C@@](O)([C@@H](OC(=O)c4ccccc4)[C@H]21)C3(C)C", "note": "[docetaxel]", "values": [{"measurement": "oral bioavailability", "setting": "Cyp3a [8]; Cyp3a-/- mice", "result": 21.2, "unit": "%"}, {"measurement": "oral bioavailability", "setting": "Cyp3a [8]; WT mice", "result": 8.1, "unit": "%"}, {"measurement": "plasma docetaxel, Cyp3a-/- versus WT mice", "setting": "Cyp3a [8]; after i.v. administration", "result": 6.8, "unit": "fold"}, {"measurement": "plasma level of docetaxel, Cyp3a-/- versus WT mice", "setting": "Cyp3a [8]; after oral administration", "result": 17.7, "unit": "fold"}, {"measurement": "docetaxel metabolism (KO phenotype)", "setting": "Cyp3a [8]; mice deficient for gene family Cyp3a", "result": "function are unable to metabolize docetaxel."}, {"measurement": "M-2 metabolite formation", "setting": "Cyp3a [9]; Cyp3a-/- microsomes", "result": "not recognized"}, {"measurement": "M-2 metabolite formation", "setting": "Cyp3a [9]; WT microsomes", "result": "efficiently formed"}]}]}
